From ChEMBL document CHEMBL1201862, “PubChem BioAssay data set” (2004) come the findings set out here.

SMILES strings stand for the structures.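 Tested at 5 concentrations; 48 h exposure; 96-well plates; endpoints linearly interpolated, else capped at highest concentration. GI50 is the concentration that inhibits growth by half.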 Activity calls are given as the source filed them. No stated cut-off is given here; in the data, active = GI50 up to about 1.1 µM and inactive = higher. Where a SMILES comes first, the peptide text is derived from it. [ ]: non-standard residue; d: D form. The star is where a group is joined. ξ: configuration not given here. ξD = NC(CC(=O)O)C(=O)O; Boc = CC(C)(C)OC(=O)*; Aib = CC(C)(N)C(=O)O; OtBu = CC(C)(C)O*

Among the test systems are DMS-273; DMS-114; KM-20L2; LXFL 529; Hs-578T; XF498; HOP-18; M19-MEL.
Test in all cases: DTP human tumour cell line panel, 48 h

The term GI50 denotes the concentration at which growth is held to half of that of the control. As to `Cc1cc(O)c2c(c1)OC1(C)CCC3C(C)(C)CCCC34COC2C14` (centres undefined), the GI50 with DMS-273 was 14 µM (inactive); in the test with DMS-114, 13.9 µM (inactive); with KM-20L2, 16.6 µM (inactive); in the test on LXFL 529 it was 15 µM (inactive).

Turning to `c1nc(NCCc2c[nH]cn2)c2nc[nH]c2n1`, in the test on Hs-578T, the GI50 is > 100 µM (inactive).

Consider `CCCCc1ccc(Nc2nc(S)c3[nH]cnc3n2)cc1`, for which, in the test on Hs-578T, the GI50 was 21.5 µM (inactive).

Regarding `CC[C@H](C)c1occ2c(O)c(C(=O)O)c(=O)cc-2c1C`, in the test with Hs-578T, the GI50 is 48.5 µM (inactive).

For the molecule `CCC1OC(=O)CC(O)C(C)C(OC2OC(C)CC(N(C)C)C2O)C(CC=O)CC(C)C(=O)/C=C/C2(C)OC2C1C` (centres undefined), the GI50 in the test on Hs-578T is 32.4 µM (inactive).

Take `S=c1sc2c(s1)SCc1cccc(n1)CSc1sc(=S)sc1SCc1cccc(n1)CS2`: the GI50 in the test on Hs-578T is > 100 µM (inactive).

As for `CC1(C)OC(CP(c2ccccc2)c2ccccc2)C(CP(c2ccccc2)c2ccccc2)O1` (centres undefined), the GI50 in the test with Hs-578T was 2.02 µM (inactive).

As to `COC(=O)c1nn2ccc3ccccc3c2c1C(=O)OC`, the GI50 in the test on Hs-578T was > 100 µM (inactive).

As for `N#Cc1c(-c2ccc([N+](=O)[O-])cc2)cc(-c2ccc(Nc3ccnc4cc(Cl)ccc34)cc2)nc1N`, the GI50 in the test with Hs-578T was 11.6 µM (inactive).

As to `Cc1cc2nc3c(C(OC4OC(CO)C(O)C(O)C4O)C(O)CO)nn(-c4ccccc4)c3nc2cc1C` (centres undefined), the GI50 in the test on DMS-114, in the test on KM-20L2 and in the test on XF498 was > 100 µM (inactive) in each case.

On to `C=CC(C)(C)n1cc(C2=C3OC(=O)C(c4cn(C(C)(C)C=C)c5ccccc45)=C3OC2=O)c2ccccc21`, for which the GI50 with Hs-578T was > 10 µM (inactive).

With `Cc1cccc(-n2c(C)nc3ccc(NC(=S)Nc4ccccc4)cc3c2=O)c1`, the GI50 in the test on Hs-578T is > 100 µM (inactive).

In the case of `COC(=O)C(CC(=O)Nc1ccc(C)cc1)C(=O)C(=O)Nc1ccccc1C(C)C` (centres undefined), the GI50 with DMS-273, in the test on HOP-18, in the test on DMS-114, with KM-20L2, with XF498 and in the test with LXFL 529 was > 100 µM (inactive) in each case. Further, in the test on M19-MEL, the GI50 is > 100 µM (inactive).

Consider `O=C1N[C@H]2c3c(Cl)sc(Cl)c3C(=O)[C@H]2O1`, for which the GI50 with Hs-578T is 17.9 µM (inactive).

In the case of `C[C@]12CC[C@H]3[C@@H](CC=C4C[C@@H](N5CCCC5)CC[C@@]43C)[C@@H]1C[C@H](N1CCCCC1)[C@@H]2O`, the GI50 with Hs-578T is > 100 µM (inactive).

For the molecule `CCCc1nnc2sc(COc3cc(Cl)c(OCc4nn5c(CCC)nnc5s4)cc3Cl)nn12`, the GI50 with Hs-578T is 32 µM (inactive).

Turning to `CCN(CC)c1ccc(NC(=S)NN(C)C)cc1`, the GI50 in the test on Hs-578T was > 10 µM (inactive).

In the case of `N#C/C(c1nc2ccccc2[nH]1)=c1\s/c(=C/c2ccccc2)c(=O)n1-c1ccccc1`, the GI50 is > 100 µM (inactive) in the test with DMS-273; > 100 µM (inactive) with DMS-114; > 100 µM (inactive) with KM-20L2; 60.8 µM (inactive) in the test with XF498; 96.2 µM (inactive) with LXFL 529; > 100 µM (inactive) in the test on M19-MEL.

As to `Clc1cc(Cc2cc(Cl)c(Cl)c3c2OCOC3)c2c(c1Cl)COCO2`, the GI50 with DMS-273 was 38.7 µM (inactive); with HOP-18, 23.8 µM (inactive); with DMS-114, 45.5 µM (inactive); with KM-20L2, > 100 µM (inactive); in the test on LXFL 529, 37.7 µM (inactive); in the test with M19-MEL, 82.8 µM (inactive).

Consider `CS(=O)(=O)c1nc(-c2cc3c(c(S(C)(=O)=O)n2)CCCC3)cc2c1CCCC2`, for which the GI50 with Hs-578T was 12.4 µM (inactive).

Consider `O=C(CSc1nnc(Cc2ccccc2)o1)Nc1ccccc1Cl`, for which the GI50 with DMS-273, in the test with HOP-18, with DMS-114, in the test on KM-20L2, with LXFL 529 and in the test with M19-MEL was > 100 µM (inactive) each time.

`CCOC(=O)c1nc2cc(C(F)(F)F)ccc2nc1Oc1ccc(C(=O)OC)cc1`: the GI50 in the test on Hs-578T was > 100 µM (inactive).

`CCOC(=O)c1ccc(-c2ccc(Cl)cc2)[nH]1`: the GI50 with Hs-578T was > 10 µM (inactive).

For `C/C(=N\O)c1ccc(OCc2cc(C(F)(F)F)cc(C(F)(F)F)c2)cc1`, the GI50 with Hs-578T is 37.8 µM (inactive).

Regarding `COc1ccc(CN(Cc2ccc(OC)cc2)C(=O)CC2(O)C=CCC2)cc1` (centres undefined), in the test on Hs-578T, the GI50 is 48.4 µM (inactive).

As to `CCn1c(-c2ccc(F)cc2)nc2c1C(=O)c1ccccc1C2=O`, the GI50 in the test with Hs-578T is > 100 µM (inactive).

Take `COc1cc(/C=C2\N=C(c3ccccc3)N(c3ccc4c(c3)Sc3cc(N5C(=O)/C(=C/c6cc(OC)c(OC)c(OC)c6)N=C5c5ccccc5)ccc3N4)C2=O)cc(OC)c1OC`: the GI50 with Hs-578T was 21.8 µM (inactive).

Regarding `COC(=O)c1ccccc1/C=C1/Cc2ccccc2C1=O`, in the test on Hs-578T, the GI50 was 30.9 µM (inactive).

`CS(=O)(=O)c1ccc(NNc2cc(=O)[nH]c(=O)[nH]2)cc1`: the GI50 in the test on Hs-578T was > 100 µM (inactive).

On to `COc1ccc(C2c3cc4c(cc3OC(NNc3ccccc3)C2C)OCO4)cc1` (centres undefined), for which the GI50 in the test with Hs-578T is 16.1 µM (inactive).

Regarding `CCCCCCCC(CC(=O)NC(CO)C(=O)NC(CO)CC(C)C)OC(=O)CC(CCCCCCC)OC(=O)CC(CCCCCCC)OC1OC(C)C(O)C(OC2OC(C)C(O)C(O)C2O)C1O` (centres undefined), the GI50 with DMS-273 is 10.9 µM (inactive); in the test on HOP-18, 17.6 µM (inactive); with DMS-114, 3.83 µM (inactive); in the test on KM-20L2, 15.7 µM (inactive); in the test on LXFL 529, 4.84 µM (inactive); with Hs-578T, 8.45 µM (inactive). The GI50 in the test with M19-MEL was 10.4 µM (inactive).

With `CCOC(=O)c1cc(C2(OC)CCN(Cc3ccccc3)C2=O)c(-c2cc(C)no2)[nH]1` (centres undefined), the GI50 in the test with Hs-578T is > 100 µM (inactive).

In the case of `CC(=O)[C@@H](C)C(=O)N1C(=O)OC[C@@]12[C@@H]1CC[C@@H](C1)C2(C)C`, in the test on Hs-578T, the GI50 was > 100 µM (inactive).

For the molecule `C[Si](C)(C)OC1(C#N)C2C3CC4C2C(=O)C2C4C3C21` (centres undefined), the GI50 with DMS-273, in the test on HOP-18, with DMS-114, with KM-20L2, in the test with LXFL 529 and in the test with M19-MEL was > 100 µM (inactive) throughout.

On to `CCOC(=O)c1c(-c2ccccc2)nc2ccccc2c1O`, for which the GI50 in the test with Hs-578T is > 100 µM (inactive).

Consider `O=C(Nc1nc2ccccc2n1Cc1ccc(Cl)cc1)NC12CC3CC(CC(C3)C1)C2`, for which the GI50 in the test on DMS-273 is 13.8 µM (inactive); with HOP-18, 27.6 µM (inactive); in the test on DMS-114, 24.3 µM (inactive); in the test with KM-20L2, 64.7 µM (inactive); in the test with XF498, 13.4 µM (inactive); with LXFL 529, 20.3 µM (inactive). In addition, the GI50 in the test with M19-MEL was 39.4 µM (inactive).

Consider `Cc1c2ccccc2c(C2C3C(=O)N(c4cccc5ccccc45)C(=O)C3ON2Cc2ccc(CC(N)=O)cc2)c2ccccc12` (centres undefined), for which the GI50 with Hs-578T is 27.6 µM (inactive).

Regarding `c1ccc2c(c1)N=c1ccccc1=P21c2ccccc2Nc2ccccc21`, the GI50 in the test with Hs-578T is 0.382 µM (active).

As for `N#C/N=C(\NCCc1c[nH]c2ccccc12)NCc1ccccc1`, the GI50 is 69.2 µM (inactive) in the test on DMS-273; 32.9 µM (inactive) in the test on DMS-114; 16.3 µM (inactive) in the test with KM-20L2; 29.6 µM (inactive) in the test on XF498; 48.2 µM (inactive) in the test with LXFL 529; 81.3 µM (inactive) with M19-MEL.

In the case of `CC1=C(CO)C(=O)O[C@@H]([C@@H](CO)[C@H]2CCC3C4C[C@@H](O)[C@@]5(O)CC=CC(=O)[C@]5(C)C4CC[C@@]32C)C1` (some centres undefined), the GI50 in the test with Hs-578T is 59.2 µM (inactive).

In the case of `CSC1(C)CC2C(CC1N1CCOCC1)C2(C)C` (centres undefined), the GI50 in the test on DMS-273, in the test on HOP-18, in the test on DMS-114, in the test with XF498, in the test on LXFL 529 and in the test with M19-MEL was > 100 µM (inactive) in each case.

`CO[C@@H]1C[C@H]2[C@@H]3CC[C@H]([C@@H](C)CO)[C@@]3(C)CC[C@@H]2[C@@]2(C)CC[C@H]3C[C@]312`: in the test on Hs-578T, the GI50 was 27.2 µM (inactive).

On to `CC(C)CCC[C@@H](C)C1CCC2[C@@H]3CC=C4C[C@@H](C(=O)NCCN(C)C)CC[C@]4(C)C3CC[C@@]21C` (some centres undefined), for which the GI50 is 24.4 µM (inactive) in the test with DMS-273; 22.4 µM (inactive) in the test with HOP-18; 14.8 µM (inactive) in the test on DMS-114; 83 µM (inactive) with KM-20L2; 8.11 µM (inactive) with XF498; 13.9 µM (inactive) in the test with LXFL 529. Besides, the GI50 in the test on M19-MEL was 19.7 µM (inactive).

Turning to `O=C(CSc1nnc(-c2ccccn2)s1)N/N=C/c1ccccc1`, in the test with Hs-578T, the GI50 was > 100 µM (inactive).

Turning to `O=C(CP(c1ccccc1)c1ccccc1)c1cccc(C(=O)CP(c2ccccc2)c2ccccc2)c1`, in the test with Hs-578T, the GI50 is 62.7 µM (inactive).

`CCCCNC(=O)OCCN=c1c2ccccc2ccc2ccccc12`: in the test on Hs-578T, the GI50 was > 100 µM (inactive).

Regarding `COc1ccc(-c2c(C#N)c(N)n(C3OC(CO)C(O)C(O)C3O)c(=S)c2C#N)cc1` (centres undefined), the GI50 in the test with Hs-578T was 21.7 µM (inactive).

For the molecule `C=CCNC1=C2C[C@@H](C)C[C@@H](OC)[C@H](OC(=O)CN)[C@H](C)/C=C(\C)[C@@H](OC(N)=O)[C@H](OC)/C=C\C=C(/C)C(=O)NC(=CC1=O)C2=O`, the GI50 in the test with Hs-578T was 7.73 µM (inactive).

On to `Cc1ccc(C(=O)Nc2ccc(S(=O)(=O)O)c3cc(S(=O)(=O)O)cc(S(=O)(=O)O)c23)cc1NC(=O)c1cccc(N)c1`, for which the GI50 with Hs-578T is > 100 µM (inactive).

For `C=CC[C@]12C=C(OC)[C@@H](O)[C@](OC)(C(c3cc(OC)c4c(c3)OCO4)[C@H]1C)[C@H]2OC(C)=O` (some centres undefined), the GI50 with Hs-578T is 22.6 µM (inactive).

For `Cc1cc(=O)oc2c(CN3CCCCC3)c(O)ccc12`, the GI50 in the test on Hs-578T is > 100 µM (inactive).

On to `COc1cccc(-c2cc(=O)c3ccc(C)nc3[nH]2)c1`, for which, in the test with Hs-578T, the GI50 is 0.0687 µM (active).

With `C=CCOc1cc2c(cc1C(C)c1ccc(OC)cc1)OCO2` (centres undefined), the GI50 is 0.421 µM (active) with DMS-273; 0.289 µM (active) in the test with DMS-114; 0.348 µM (active) with KM-20L2; 0.287 µM (active) with XF498; 0.718 µM (active) with LXFL 529; 0.718 µM (active) in the test with M19-MEL.

Take `CCOC(=O)c1nc2ccccc2nc1NCc1ccc(OC)cc1`: the GI50 in the test with Hs-578T is 40.5 µM (inactive).

As to `COC(=O)C(C)(C)NC(=O)C(C)(C)NC(=O)C(CC(=O)OC(C)(C)C)NC(=O)OC(C)(C)C` (centres undefined) (Boc-[ξD](OtBu)-[Aib]-[Aib]-OMe), in the test on Hs-578T, the GI50 is > 100 µM (inactive).
